Experimental findings from ChEMBL document CHEMBL5150077, “Identification of TUL01101: A Novel Potent and Selective JAK1 Inhibitor for the Treatment of Rheumatoid Arthritis” (J Med Chem, 2022) are described below.

Usually IC50 stands for the concentration that inhibits the measured activity by half.

Each structure is given as a SMILES string.

Assay [1] deals with Tyrosine-protein kinase JAK1 (Homo sapiens, UniProt P23458). The assay can be described thus: Inhibition of recombinant human JAK1 using MGEEPLYWSFPAKKK as substrate incubated for 40 mins in presence of Mg/ATP mixture by [gamma p33]-ATP based scintillation counting method.
In assay [2] the target is Tyrosine-protein kinase JAK2 (Homo sapiens, UniProt O60674). In words: Inhibition of recombinant human JAK2 using KTFCGTPEYLAPEVRREPRILSEEEQEMFRDFDYIADWC as substrate incubated for 40 mins in presence of Mg/ATP mixture by [gamma p33]-ATP based scintillation counting method.
The target of assay [3] is Non-receptor tyrosine-protein kinase TYK2 (Homo sapiens, UniProt P29597). The assay can be described thus: Inhibition of recombinant human TYK2 using GGMEDIYFEFMGGKKK as substrate incubated for 40 mins in presence of Mg/ATP mixture by [gamma p33]-ATP based scintillation counting method.
The target of assay [4] is T1, Tyrosine-protein kinase JAK3 (Homo sapiens, UniProt P52333).
T1 sequence (P52333 whole entry): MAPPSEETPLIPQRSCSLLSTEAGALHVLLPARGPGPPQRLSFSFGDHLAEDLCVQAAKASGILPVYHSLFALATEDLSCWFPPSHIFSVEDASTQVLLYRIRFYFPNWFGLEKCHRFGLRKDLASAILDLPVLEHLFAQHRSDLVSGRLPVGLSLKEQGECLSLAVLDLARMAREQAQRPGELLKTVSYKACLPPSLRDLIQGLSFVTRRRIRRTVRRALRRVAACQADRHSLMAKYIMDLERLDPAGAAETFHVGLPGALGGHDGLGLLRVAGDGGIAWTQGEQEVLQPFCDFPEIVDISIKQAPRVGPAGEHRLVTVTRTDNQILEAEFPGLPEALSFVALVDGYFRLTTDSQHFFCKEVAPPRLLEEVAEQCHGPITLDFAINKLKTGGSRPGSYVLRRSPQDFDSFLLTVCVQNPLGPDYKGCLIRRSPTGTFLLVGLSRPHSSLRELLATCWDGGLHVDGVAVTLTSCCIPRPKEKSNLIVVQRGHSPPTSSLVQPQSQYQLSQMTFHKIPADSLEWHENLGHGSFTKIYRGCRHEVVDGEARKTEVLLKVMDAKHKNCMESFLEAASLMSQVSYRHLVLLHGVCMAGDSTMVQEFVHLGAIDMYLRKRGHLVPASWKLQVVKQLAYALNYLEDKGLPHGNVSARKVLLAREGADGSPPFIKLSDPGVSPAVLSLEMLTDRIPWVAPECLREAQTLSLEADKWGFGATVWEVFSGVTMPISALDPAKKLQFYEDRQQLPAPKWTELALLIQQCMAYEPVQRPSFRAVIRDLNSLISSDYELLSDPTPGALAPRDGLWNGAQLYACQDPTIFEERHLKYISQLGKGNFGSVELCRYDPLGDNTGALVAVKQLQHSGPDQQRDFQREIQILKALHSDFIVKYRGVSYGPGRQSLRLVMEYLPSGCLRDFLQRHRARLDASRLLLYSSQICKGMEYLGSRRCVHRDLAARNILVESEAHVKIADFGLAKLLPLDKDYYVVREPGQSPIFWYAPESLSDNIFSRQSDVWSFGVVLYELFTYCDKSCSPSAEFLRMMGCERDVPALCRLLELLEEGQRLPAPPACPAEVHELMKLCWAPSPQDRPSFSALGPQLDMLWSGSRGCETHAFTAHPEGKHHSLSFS
In words: Inhibition of recombinant human JAK3 using GGEEEEYFELVKKKK as substrate incubated for 40 mins in presence of Mg/ATP mixture by [gamma p33]-ATP based scintillation counting method.

The species entered for assay [5] is Homo sapiens. In words: Selectivity index, ratio of IC50 for inhibition of recombinant human JAK2 to IC50 for inhibition of recombinant human JAK1.
The species named for assay [6] is Homo sapiens. In words: Selectivity index, ratio of IC50 for inhibition of recombinant human TYK2 to IC50 for inhibition of recombinant human JAK1.

Chain of Tyrosine-protein kinase JAK1 (P23458 whole entry): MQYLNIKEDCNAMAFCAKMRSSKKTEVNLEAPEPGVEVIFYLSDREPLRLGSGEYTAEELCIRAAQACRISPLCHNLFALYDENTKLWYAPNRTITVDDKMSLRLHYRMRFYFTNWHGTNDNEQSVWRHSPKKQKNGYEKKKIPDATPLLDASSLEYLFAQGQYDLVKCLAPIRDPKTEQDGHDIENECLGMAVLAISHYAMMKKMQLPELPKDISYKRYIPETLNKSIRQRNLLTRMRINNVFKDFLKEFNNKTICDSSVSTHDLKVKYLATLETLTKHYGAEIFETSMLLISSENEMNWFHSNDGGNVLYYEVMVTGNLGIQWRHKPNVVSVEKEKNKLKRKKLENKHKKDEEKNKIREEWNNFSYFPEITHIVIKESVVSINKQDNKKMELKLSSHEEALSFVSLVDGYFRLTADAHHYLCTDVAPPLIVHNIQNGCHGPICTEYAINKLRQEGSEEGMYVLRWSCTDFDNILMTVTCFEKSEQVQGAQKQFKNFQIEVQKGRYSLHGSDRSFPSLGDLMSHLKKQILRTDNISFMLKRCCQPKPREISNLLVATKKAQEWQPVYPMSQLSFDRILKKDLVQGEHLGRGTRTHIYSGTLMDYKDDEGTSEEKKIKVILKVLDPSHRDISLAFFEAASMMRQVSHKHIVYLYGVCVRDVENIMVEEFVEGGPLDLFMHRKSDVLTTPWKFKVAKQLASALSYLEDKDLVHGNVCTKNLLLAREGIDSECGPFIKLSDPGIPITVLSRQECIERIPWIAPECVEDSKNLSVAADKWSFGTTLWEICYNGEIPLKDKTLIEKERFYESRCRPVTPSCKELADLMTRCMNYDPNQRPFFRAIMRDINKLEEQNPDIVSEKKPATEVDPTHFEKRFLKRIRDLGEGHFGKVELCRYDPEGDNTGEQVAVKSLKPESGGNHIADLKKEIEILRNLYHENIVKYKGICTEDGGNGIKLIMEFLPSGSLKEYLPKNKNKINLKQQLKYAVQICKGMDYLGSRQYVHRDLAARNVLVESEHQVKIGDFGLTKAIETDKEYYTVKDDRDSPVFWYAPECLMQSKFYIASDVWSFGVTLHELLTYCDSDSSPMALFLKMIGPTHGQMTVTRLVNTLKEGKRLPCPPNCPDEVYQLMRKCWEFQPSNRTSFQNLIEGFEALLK
Chain of Non-receptor tyrosine-protein kinase TYK2 (P29597 whole entry): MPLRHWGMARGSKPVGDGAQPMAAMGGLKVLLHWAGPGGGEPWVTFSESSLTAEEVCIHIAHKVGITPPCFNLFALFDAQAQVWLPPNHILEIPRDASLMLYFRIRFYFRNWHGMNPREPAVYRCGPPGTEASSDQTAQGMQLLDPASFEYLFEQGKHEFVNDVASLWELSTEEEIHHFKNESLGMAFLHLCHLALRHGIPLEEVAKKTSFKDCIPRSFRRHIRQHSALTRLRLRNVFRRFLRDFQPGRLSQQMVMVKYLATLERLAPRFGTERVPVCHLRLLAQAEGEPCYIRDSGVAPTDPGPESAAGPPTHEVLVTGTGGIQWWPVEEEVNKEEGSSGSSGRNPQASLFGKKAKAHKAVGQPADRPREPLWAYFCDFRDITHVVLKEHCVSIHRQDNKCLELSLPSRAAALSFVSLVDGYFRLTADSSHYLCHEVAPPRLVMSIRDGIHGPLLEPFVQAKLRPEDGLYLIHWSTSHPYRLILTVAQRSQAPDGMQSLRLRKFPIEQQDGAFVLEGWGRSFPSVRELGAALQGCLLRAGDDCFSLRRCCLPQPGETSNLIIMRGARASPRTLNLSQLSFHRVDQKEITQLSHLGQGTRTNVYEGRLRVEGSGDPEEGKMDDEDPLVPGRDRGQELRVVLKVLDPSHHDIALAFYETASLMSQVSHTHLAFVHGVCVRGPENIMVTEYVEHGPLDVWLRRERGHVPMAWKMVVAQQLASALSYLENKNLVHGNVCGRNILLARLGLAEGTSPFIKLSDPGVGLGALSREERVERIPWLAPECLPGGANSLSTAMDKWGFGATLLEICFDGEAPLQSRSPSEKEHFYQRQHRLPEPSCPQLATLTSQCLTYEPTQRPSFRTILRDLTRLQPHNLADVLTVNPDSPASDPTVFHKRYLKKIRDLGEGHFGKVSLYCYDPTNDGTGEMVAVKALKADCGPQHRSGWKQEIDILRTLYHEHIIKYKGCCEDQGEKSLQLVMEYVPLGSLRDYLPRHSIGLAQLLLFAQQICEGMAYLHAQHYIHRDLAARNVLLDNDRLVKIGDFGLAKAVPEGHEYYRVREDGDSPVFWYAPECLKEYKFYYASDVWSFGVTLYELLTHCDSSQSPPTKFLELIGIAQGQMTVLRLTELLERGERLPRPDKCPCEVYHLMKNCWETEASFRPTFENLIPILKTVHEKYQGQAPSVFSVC
Chain of Tyrosine-protein kinase JAK2 (O60674 whole entry): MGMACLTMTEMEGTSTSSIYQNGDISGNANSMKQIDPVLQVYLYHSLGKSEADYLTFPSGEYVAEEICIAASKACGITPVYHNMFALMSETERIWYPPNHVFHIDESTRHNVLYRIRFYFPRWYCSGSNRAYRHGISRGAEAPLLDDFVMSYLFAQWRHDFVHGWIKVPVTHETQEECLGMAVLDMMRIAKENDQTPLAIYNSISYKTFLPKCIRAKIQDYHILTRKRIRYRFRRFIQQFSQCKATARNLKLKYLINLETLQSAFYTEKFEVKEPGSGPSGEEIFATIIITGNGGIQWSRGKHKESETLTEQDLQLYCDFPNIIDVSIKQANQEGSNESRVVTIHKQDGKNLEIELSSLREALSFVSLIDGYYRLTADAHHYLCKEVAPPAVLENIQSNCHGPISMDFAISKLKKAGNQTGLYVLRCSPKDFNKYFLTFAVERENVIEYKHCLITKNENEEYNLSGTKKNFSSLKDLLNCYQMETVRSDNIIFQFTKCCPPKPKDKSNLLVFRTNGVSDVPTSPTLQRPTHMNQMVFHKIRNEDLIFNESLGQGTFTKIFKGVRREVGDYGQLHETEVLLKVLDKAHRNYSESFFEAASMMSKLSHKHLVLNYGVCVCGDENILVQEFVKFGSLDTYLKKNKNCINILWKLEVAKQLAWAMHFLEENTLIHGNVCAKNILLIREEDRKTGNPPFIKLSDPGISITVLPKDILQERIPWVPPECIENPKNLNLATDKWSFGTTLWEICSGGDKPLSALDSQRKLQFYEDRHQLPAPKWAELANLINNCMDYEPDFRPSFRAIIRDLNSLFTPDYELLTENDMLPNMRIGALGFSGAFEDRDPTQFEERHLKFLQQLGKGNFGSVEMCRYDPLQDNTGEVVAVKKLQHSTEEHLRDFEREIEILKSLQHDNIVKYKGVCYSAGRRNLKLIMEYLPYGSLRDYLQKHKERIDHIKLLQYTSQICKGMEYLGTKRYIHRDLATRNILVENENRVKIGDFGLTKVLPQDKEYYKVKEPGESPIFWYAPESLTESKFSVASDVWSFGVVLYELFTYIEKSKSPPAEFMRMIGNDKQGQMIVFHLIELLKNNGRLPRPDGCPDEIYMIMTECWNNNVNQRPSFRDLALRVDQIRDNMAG

As to `O=C(Nc1nc2cccc([C@H]3CC[C@H](NC(=O)[C@@H]4CC4(F)F)CC3)n2n1)C1CC1`, the IC50 in assay [1] was 0.181 µM; in assay [2] it was 4.75 µM; in assay [3] it was 1.74 µM; in assay [4], more than 10 µM. Also, the Ratio IC50 in assay [5] worked out at 26.3; in assay [6], 9.6.
Consider `N#CCCN1CC2(CCC(c3cccc4nc(NC(=O)C5CC5)nn34)CC2)C1`, for which the IC50 in assay [1] was 0.065 µM; in assay [3] it was 0.371 µM; in assay [4], more than 10 µM.
With `O=C(Nc1nc2cccc(C3CCC4(CC3)CCN(C(=O)CC(F)(F)F)CC4)n2n1)C1CC1`, the IC50 in assay [1] was 0.054 µM; in assay [2], 0.294 µM; in assay [3], 0.155 µM; in assay [4], more than 10 µM. The Ratio IC50 was 5.4 in assay [5] and 2.9 in assay [6].
With `N#CCN1CC2(CCC(c3cccc4nc(NC(=O)C5CC5)nn34)CC2)C1`, the results for the IC50 in assay [1], in assay [3] and in assay [4] were 0.114 µM, 0.581 µM and more than 10 µM, respectively.
For `O=C(Nc1nc2cccc([C@H]3CCC4(C3)CN(C(=O)[C@@H]3CC3(F)F)C4)n2n1)C1CC1`, in that order: 0.063 µM, 0.83 µM and more than 10 µM.
In the case of `O=C(Nc1nc2cccc(C3=CCC(NC(=O)C4CC4)CC3)n2n1)C1CC1` (stereo not drawn), the Ratio IC50 in assay [5] was found to be 9.5; in assay [6], 3.3.
With `O=C(Nc1nc2cccc(C3=CCN(C(=O)C4(F)CC4)C3)n2n1)C1CC1`, the Ratio IC50 is 2.1 in assay [5] and 5.4 in assay [6].
As for `O=C(Nc1nc2cccc([C@H]3CC[C@H](NC(=O)[C@H]4CC4(F)F)CC3)n2n1)C1CC1`, the IC50 in assay [1] was 0.341 µM; in assay [2], 8.07 µM; in assay [3] it was 5.76 µM; in assay [4], more than 10 µM. Also, the Ratio IC50 in assay [5] was found to be 23.7; in assay [6], 16.9.
As to `O=C(Nc1nc2cccc(C3=CC[C@@H](NC(=O)[C@H]4CC4(F)F)CC3)n2n1)C1CC1`, the IC50 in assay [1] worked out at 0.166 µM; in assay [3], 0.942 µM. Besides, the Ratio IC50 in assay [6] came out at 5.7.
As for `O=C(Nc1nc2cccc(C3=CC[C@H](NC(=O)[C@H]4CC4(F)F)CC3)n2n1)C1CC1`, the results for the Ratio IC50 in assay [5] and in assay [6] were 7.4 and 4.2, respectively.
With `O=C(Nc1nc2cccc(C3=CCN(C(=O)C4CC4)CC3)n2n1)C1CC1`, the Ratio IC50 in assay [5] was determined as 4.7; in assay [6] it was 2.
With `O=C(Nc1nc2cccc(C3CCC4(CC3)CCN(C(=O)CC(F)(F)F)C4)n2n1)C1CC1` (stereo not drawn), the IC50 in assay [1] is 0.131 µM; in assay [2] it was 2.73 µM; in assay [3] it was 1.53 µM; in assay [4], more than 10 µM. The results for the Ratio IC50 in assay [5] and in assay [6] were 20.8 and 11.6, respectively.
For the compound `N#CC1(C(=O)N2CC3(CCC(c4cccc5nc(NC(=O)C6CC6)nn45)CC3)C2)CC1`, the results for the IC50 in assay [1], in assay [3] and in assay [4] were 0.015 µM, 0.018 µM and more than 10 µM, respectively.
Regarding `O=C(Nc1nc2cccc(C3=CC[C@H](NC(=O)[C@@H]4CC4(F)F)CC3)n2n1)C1CC1`, the IC50 worked out at 0.012 µM in assay [1], 0.141 µM in assay [2], 0.078 µM in assay [3] and 5.52 µM in assay [4]. Besides, the Ratio IC50 in assay [5] came out at 11.8; in assay [6], 6.5.
Take `O=C(Nc1nc2cccc(C3=CC[C@@H](NC(=O)[C@@H]4CC4(F)F)CC3)n2n1)C1CC1`: the IC50 in assay [1] is 0.163 µM; in assay [3] it was 1.37 µM. Besides, in assay [6], the Ratio IC50 was 8.4.
For the compound `O=C(Nc1nc2cccc([C@@H]3CCC4(CCN(C(=O)[C@@H]5CC5(F)F)CC4)C3)n2n1)C1CC1`, the IC50 is 0.381 µM in assay [1], 1.92 µM in assay [2], 0.57 µM in assay [3] and more than 10 µM in assay [4]. For the same compound, the Ratio IC50 was found to be 5 in assay [5] and 1.5 in assay [6].
Consider `O=C(Nc1nc2cccc(C3CCC4(CC3)CCN(C(=O)[C@H]3CC3(F)F)C4)n2n1)C1CC1` (stereo partly drawn), for which the IC50 was determined as 0.075 µM in assay [1], 0.789 µM in assay [2], 0.692 µM in assay [3] and 7.35 µM in assay [4]. Besides, the Ratio IC50 in assay [5] is 10.5; in assay [6] it was 9.2.
With `N#CCC(=O)N1CCC2(CCC(c3cccc4nc(NC(=O)C5CC5)nn34)CC2)CC1`, the IC50 in assay [1] was 0.02 µM; in assay [2], 0.08 µM; in assay [3], 0.026 µM; in assay [4], 2.32 µM. Besides, the Ratio IC50 in assay [5] was 4; in assay [6], 1.3.
Consider `O=C(Nc1nc2cccc([C@@H]3CCC4(C3)CN(C(=O)[C@@H]3CC3(F)F)C4)n2n1)C1CC1`, for which the IC50 in assay [1] was 0.176 µM; in assay [3], 0.404 µM; in assay [4] it was more than 10 µM.
Take `O=C(Nc1nc2cccc(C3=CCC(NC(=O)C4CC4(F)F)CC3)n2n1)C1CC1` (stereo not drawn): the Ratio IC50 in assay [5] is 11.9; in assay [6], 3.6.
On to `N#CCC(=O)N1CCC2(CCC(c3cccc4nc(NC(=O)C5CC5)nn34)CC2)C1` (stereo not drawn), for which the IC50 in assay [1] was 0.068 µM; in assay [2] it was 0.52 µM; in assay [3], 0.278 µM; in assay [4] it was more than 10 µM. For the same compound, the results for the Ratio IC50 in assay [5] and in assay [6] were 7.6 and 4.1, respectively.
For `CC(C)(C#N)C(=O)N1CC2(CCC(c3cccc4nc(NC(=O)C5CC5)nn34)CC2)C1`, the results for the IC50 in assay [1], in assay [3] and in assay [4] were 0.02 µM, 0.106 µM and 9.67 µM, respectively.
With `O=C(Nc1nc2cccc(C3=CCN(C(=O)C4CC4(F)F)C3)n2n1)C1CC1` (stereo not drawn), the IC50 in assay [4] was more than 10 µM.
Take `O=C(Nc1nc2cccc(C3CCC(NC(=O)C4CC4(F)F)CC3)n2n1)C1CC1` (stereo not drawn): the Ratio IC50 in assay [5] amounted to 7.7; in assay [6], 3.3.
With `O=C(Nc1nc2cccc([C@H]3CCC4(CCN(C(=O)[C@@H]5CC5(F)F)CC4)C3)n2n1)C1CC1`, the IC50 in assay [1] came to 0.063 µM; in assay [2], 0.998 µM; in assay [3], 0.829 µM; in assay [4], 9.39 µM. Besides, the results for the Ratio IC50 in assay [5] and in assay [6] were 15.8 and 13.2, respectively.
In the case of `O=C(Nc1nc2cccc([C@H]3CC[C@@H](NC(=O)[C@H]4CC4(F)F)CC3)n2n1)C1CC1`, the IC50 is 0.048 µM in assay [1], 0.962 µM in assay [2], 0.455 µM in assay [3] and more than 10 µM in assay [4]. Further, the Ratio IC50 in assay [5] worked out at 20; in assay [6], 9.5.
